Data published in patent US8796295B2, “Substituted benzamide analogs as mGluR5 negative allosteric modulators and methods of making and using the same” (priority 2009, dated 2014).
pIC50: −log10 of the molar value.

biological target: rat mGluR5 (Rattus norvegicus (Rat), UniProt P31424); assay: cell-based
Sequence (P31424 21-1203): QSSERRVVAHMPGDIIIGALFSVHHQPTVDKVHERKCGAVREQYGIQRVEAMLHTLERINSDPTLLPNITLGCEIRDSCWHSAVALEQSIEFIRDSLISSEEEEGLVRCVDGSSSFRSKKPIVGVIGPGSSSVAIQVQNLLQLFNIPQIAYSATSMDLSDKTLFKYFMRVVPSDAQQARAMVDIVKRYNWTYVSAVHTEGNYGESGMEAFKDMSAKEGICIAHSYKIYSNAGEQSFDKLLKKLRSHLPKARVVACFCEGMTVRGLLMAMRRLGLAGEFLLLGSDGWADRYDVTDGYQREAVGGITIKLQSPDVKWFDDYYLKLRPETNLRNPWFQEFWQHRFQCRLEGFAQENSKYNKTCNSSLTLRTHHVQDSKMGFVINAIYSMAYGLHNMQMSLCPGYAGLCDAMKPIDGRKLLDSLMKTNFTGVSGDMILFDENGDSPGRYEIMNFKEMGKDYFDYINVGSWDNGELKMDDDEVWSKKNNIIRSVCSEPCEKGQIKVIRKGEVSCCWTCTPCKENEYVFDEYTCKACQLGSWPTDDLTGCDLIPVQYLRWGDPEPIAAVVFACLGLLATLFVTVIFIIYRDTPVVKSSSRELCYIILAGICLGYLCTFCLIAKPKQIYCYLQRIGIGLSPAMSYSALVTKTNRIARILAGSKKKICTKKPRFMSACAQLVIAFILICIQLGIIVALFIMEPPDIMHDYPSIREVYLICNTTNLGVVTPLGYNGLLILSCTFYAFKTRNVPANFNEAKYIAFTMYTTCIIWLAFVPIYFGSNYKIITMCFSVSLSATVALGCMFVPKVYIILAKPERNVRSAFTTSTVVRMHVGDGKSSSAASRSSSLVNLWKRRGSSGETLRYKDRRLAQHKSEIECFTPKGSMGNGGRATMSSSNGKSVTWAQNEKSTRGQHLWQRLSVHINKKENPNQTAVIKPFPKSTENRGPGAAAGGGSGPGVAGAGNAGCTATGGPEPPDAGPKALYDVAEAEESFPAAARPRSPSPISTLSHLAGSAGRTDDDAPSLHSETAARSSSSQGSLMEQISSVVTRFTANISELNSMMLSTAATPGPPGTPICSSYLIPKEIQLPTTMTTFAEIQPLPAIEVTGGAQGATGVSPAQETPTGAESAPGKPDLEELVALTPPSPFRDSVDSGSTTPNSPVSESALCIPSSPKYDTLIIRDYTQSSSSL
Experimental: The cells were loaded with a Ca2+-sensitive fluorescent dye (e.g., Fluo-4), and the plates were washed and placed in the FDSS instrument. Test compound was applied to cells 3 seconds after baseline readings were taken. Cells were incubated with the test compounds for 140 seconds and then stimulated with an EC20 concentration of an mGluR5 agonist (e.g., glutamate, 3,5-dihydroxyphenylglycine, or quisqualate); 60-80 seconds later an EC80 concentration of agonist was added and readings taken for an additional 40 seconds. Data were collected at 1 Hz. […] Concentration response curves were generated using a four parameter logistical equation.
The above described assay was operated in two modes. In the first mode (utilizing a triple add protocol), a range of concentrations of the present compounds were added to cells, followed by two single fixed concentrations of agonist (EC20 followed by EC80). If a compound acted as a potentiator, an EC50 value for potentiation of the EC20 response and a maximum extent of potentiation by the compound at this concentration of agonist was determined by non-linear curve fitting. If a compound acted as an antagonist, an IC50 value for antagonism of the EC80 response and a maximum extent of antagonism by the compound at this concentration of agonist was determined by non-linear curve fitting. In the second mode (utilizing a double add protocol), several fixed concentrations of the present compounds were added to various wells on a plate, followed by a range of concentrations of agonist for each concentration of present compound; the EC50 values for the agonist at each concentration of compound were determined by nonlinear curve fitting. A decrease in the EC50 value of the agonist with increasing concentrations of the present compounds (a leftward shift of the agonist concentration-response curve) is an indication of the degree of mGluR5 positive allosteric modulation at a given concentration of the present compound. An increase in the EC50 value of the agonist with increasing concentrations of the present compounds (a rightward shift of the agonist concentration response curve) is an indication of the degree of mGluR5 antagonism at a given concentration of the present compound. The second mode also indicates whether the present compounds also affect the maximum response to mGluR5 to agonists.
The mGluR5 activity was determined using the metabotropic glutamate receptor activity assays in human embryonic kidney cells as described herein, wherein the human embryonic kidney cells were transfected with rat mGluR5. The mGluR5 activity data for some compounds are shown as the average of at least three experiments with the standard error in these cases. If no error is indicated for the mGluR5 activity, the values given represent the results from a single experiment or the average of two experiments.

Row | pIC50 | SMILES
1 | < 5.00 | Cc1cncc(NC(=O)c2cc(F)cc(Oc3cncnc3)c2)c1
2 | 6.46 | O=C(Nc1nc(C2CC2)cs1)c1cc(F)cc(Oc2cncnc2)c1
3 | 6.44 | Cc1nc(NC(=O)c2cc(F)cc(Oc3cncnc3)c2)ccc1F
4 | 5.66 | CN(c1cccnc1)c1cc(F)cc(C(=O)Nc2nc(C#N)cs2)c1
5 | 5.90 | CN(c1cccnc1)c1cc(F)cc(C(=O)Nc2nccs2)c1
6 | 5.56 | Cc1cc(NC(=O)c2cc(Cl)cc(Oc3cncnc3)c2)ncc1F
7 | 7.28 | Cc1nc(NC(=O)c2cc(F)cc(Oc3cncnc3)c2)sc1F
8 | < 5.00 | Cc1cncc(NC(=O)c2cc(Cl)cc(Oc3cncnc3)c2)c1
9 | 6.11 | O=C(Nc1ccc(F)c(C(F)F)n1)c1cc(Cl)cc(Oc2cncnc2)c1
10 | 6.41 | O=C(Nc1nc(C(F)F)cs1)c1cc(Cl)cc(Oc2cncnc2)c1
11 | 6.75 | Cc1csc(NC(=O)c2cc(F)cc(N(C)c3cccnc3)c2)n1
12 | < 4.52 | O=C(Nc1ncc(F)cc1F)c1cc(Cl)cc(Oc2cncnc2)c1
13 | 5.38 | CCc1ccnc(NC(=O)c2cc(Cl)cc(Oc3cncnc3)c2)c1
14 | 6.03 | CN(c1cncnc1)c1cc(Cl)cc(C(=O)Nc2ccc(Cl)cn2)c1
15 | < 5.00 | Cc1nc(NC(=O)c2cc(F)cc(Oc3cncnc3)c2)sc1C(C)(C)C
16 | 6.58 | CN(c1cncnc1)c1cc(Cl)cc(C(=O)Nc2cc(Cl)ccn2)c1
17 | 7.66 | Cc1cc(Oc2cncnc2)cc(C(=O)Nc2ccc(F)cn2)c1
18 | 5.29 | O=C(Nc1nccs1)c1cc(F)cc(Oc2cncnc2)c1
19 | 6.70 | O=C(Nc1nc(C2CC2)cs1)c1cc(Cl)cc(Oc2cncnc2)c1

Row | pIC50 | SMILES
20 | 7.19 | Cc1csc(NC(=O)c2cccc(Oc3cncnc3)c2)n1
21 | 5.43 | Cc1nc(NC(=O)c2cc(Cl)cc(Oc3cncnc3)c2)sc1Br
22 | 5.34 | O=C(Nc1nccs1)c1cccc(Oc2cncnc2)c1
23 | < 5.00 | Cc1cncc(NC(=O)c2cc(Cl)cc(N(C)c3cncnc3)c2)c1
24 | 5.97 | COc1cccc(NC(=O)c2cc(F)cc(Oc3cncnc3)c2)n1
25 | < 4.52 | CN(c1cncnc1)c1cc(F)cc(C(=O)Nc2ccc(Cl)cn2)c1
26 | 6.19 | CN(c1cccnc1)c1cc(Cl)cc(C(=O)Nc2nccs2)c1
27 | 6.97 | CN(c1cncnc1)c1cc(F)cc(C(=O)Nc2cc(Cl)ccn2)c1
28 | 5.13 | O=C(Nc1ccc(F)cn1)c1cccc(Oc2cccnc2)c1
29 | < 5.00 | Cc1cncc(NC(=O)c2cc(F)cc(N(C)c3cncnc3)c2)c1
30 | 6.53 | Cc1csc(NC(=O)c2cccc(Oc3cccnc3)c2)n1
31 | 7.27 | Cc1nc(NC(=O)c2cc(Cl)cc(Oc3cncnc3)c2)ccc1F
32 | 5.34 | O=C(Nc1ccc(F)c(CF)n1)c1cc(F)cc(Oc2cncnc2)c1
33 | 7.31 | Cc1csc(NC(=O)c2cc(Cl)cc(N(C)c3cccnc3)c2)n1
34 | 5.45 | CN(c1cccnc1)c1cccc(C(=O)Nc2nccs2)c1
35 | 7.06 | O=C(Nc1ccc(Cl)cn1)c1cc(Cl)cc(Oc2cncnc2)c1
36 | 5.44 | N#Cc1csc(NC(=O)c2cccc(Oc3cccnc3)c2)n1
37 | 8.19 | Cc1csc(NC(=O)c2cc(Cl)cc(Oc3cccnc3)c2)n1

Row | SMILES | pIC50
38 | O=C(Nc1ccncn1)c1cccc(Oc2cccnc2)c1 | < 5.00
39 | Cc1nsc(NC(=O)c2cccc(Oc3cccnc3)c2)n1 | < 4.52
40 | O=C(Nc1ncccc1F)c1cc(Cl)cc(Oc2cncnc2)c1 | < 5.00
41 | O=C(Nc1nc(C(F)(F)F)cs1)c1cccc(Oc2cccnc2)c1 | < 4.52
